Measurements taken from article PMC2212116 (The Journal of Experimental Medicine, 1998).

System: mouse and human MHC class II molecules
Assay: Competitive assay for MHC class II binding, alleles taken together
Conditions: competition with known conventional peptide antigens that bind to the class II groove

H2B10–33: epitope for other pathogenic Th cells of lupus, localized in histone H2B10–33
binding to class II alleles (in words): did not show promiscuous binding
